The values that follow come from US20250281554A1, “COMPOSITION FOR IMPROVING DRUG SENSITIVITY OF ANTIBACTERIAL DRUG TO METHICILLIN-RESISTANT STAPHYLOCOCCUS AUREUS (MRSA), COMPOSITION FOR TREATING OR PREVENTING MRSA INFECTION, AND COMPOSITION FOR REDUCING VIRULENCE OF MRSA” (priority 2021, published 2025).

Holding throughout (type): cell-based, methicillin-resistant Staphylococcus aureus
Experiment [1] has as its system wild-type strain (MRSA2007-13 strain). Nature of the experiment: drug sensitivity test (MIC method), wild-type strain. For drug sensitivity rating (MIC method), WT: key: resistance (R); sensitivity(S). Conditions: MRSA2007-13 WT; for MIC, WT: dry plate, cultured 20 hours, in µg/mL (unit assumed). As to the method: (§1) Next, the drug sensitivities of a wild-type strain (MRSA2007-13 strain) and mutated strains having a mutation in both mgrA and femA (SAm1-201, SAm1-206, SAm1-210) to antibacterial drugs were measured in a drug sensitivity test (MIC method). The test method will be explained. A bacterial solution (a wild-type strain or a mutant) precultured overnight was diluted with sterile physiological saline to reach OD600≈0.26, and 25 μL of the bacterial solution was added to 12 mL of Mueller-Hinton liquid medium (Eiken Chemical Co., Ltd.). To each well of a dry plate (Eiken Chemical Co., Ltd.), […] of the bacterial solution was added, and cultured for 20 hours. After culturing, the MIC was determined based on determination criteria for the dry plate.

The subject of experiment [2] is MRSA2007-13 SAm1-201 (mgrA mutation and femA mutation). The experiment is described as follows: drug sensitivity test (MIC method), SAm1-201. To be noted: for MIC, SAm1-201: dry plate, cultured 20 hours. How it is done: as §1
The subject of experiment [3] is MRSA2007-13 SAm1-210 (mgrA mutation and femA mutation). The experiment is described as follows: drug sensitivity test (MIC method), SAm1-210. Conditions: dry plate, cultured 20 hours, unit assumed. How it is done: as §1
Experiment [4] deals with MRSA2007-13 SAm1-206 (mgrA mutation and femA mutation). Nature of the experiment: drug sensitivity test (MIC method), SAm1-206. To be noted: dry plate, cultured 20 hours, unit assumed. How it is done: as §1
The test system of experiment [5] is mutant (SAm1-201) of MRSA2007-13. Nature of the experiment: drug sensitivity test (disk method), mutant SAm1-201. For drug sensitivity rating (disk method), SAm1-201: key: resistance (R); sensitivity(S). Conditions: MRSA2007-13 SAm1-201, 37° C., 24 hours; for drug sensitivity rating (disk method), SAm1-201: Mueller-Hinton II agar; for diameter of inhibitory zone, SAm1-201: number in brackets. How it is done:
(§2) The drug sensitivities of a wild-type strain (MRSA2007-13 strain) and a mutant (SAm1-201) to β-lactam antibacterial drugs were measured in a drug sensitivity test (disk method). The test method will be explained. The wild-type strain (MRSA2007-13 strain) or the mutant (SAm1-201) was streaked on LB-Agar, and cultured at 37° C. overnight. The following day, single colonies were collected, added to 5 mL of Trypticase soy broth, and subjected to shaking culture at 37° C. overnight. After culturing, the bacterial solution was adjusted to McFarland turbidity No. 0.5, and evenly smeared on Mueller-Hinton II agar medium with a sterile cotton swab. After disposing sensitivity disks on the agar medium, culture was performed at 37° C. for 24 hours, and the diameter of an inhibitory zone formed around each disk was measured in millimeters.

The subject of experiment [6] is wild-type strain (MRSA2007-13 strain). The experiment is described as follows: drug sensitivity test (disk method), wild-type strain. For drug sensitivity rating (disk method), WT: key: resistance (R); sensitivity(S). Conditions: MRSA2007-13 WT, 37° C., 24 hours; for drug sensitivity rating (disk method), WT: Mueller-Hinton II agar; for diameter of inhibitory zone, WT: number in brackets. How it is done: as §2
The test system is the same in experiment [7]. Nature of the experiment: growth-inhibitory effect of phage and oxacillin added from the beginning, turbidimetry. To be noted: WT MRSA, ϕSA012 ≈1.0×10^7 pfu/mL (MOI≈0.1), oxacillin sodium 16 μg/mL, 37° C. As to the method: The test method is shown in the following. This test was performed by means of turbidimetry. A bacterial solution (wild-type strain (MRSA2007-13 strain)) precultured overnight was diluted with LB-Broth to reach OD600≈1.0, and further 10-fold diluted (˜ 1.0×10^8 cfu/mL).
The plate was set in a Sunrise Rainbow Thermo RC (Tecan Japan Co., Ltd.), and shaking culture was performed at 37° C. for 90 hours while absorbance values at a wavelength of 590 nm were measured every 15 minutes.

Converted amounts (≈) assume the structure as drawn. A value given as a limit tells only on which side of the number the result lay.

Turning to `CCN1CCN(c2cc3c(cc2F)c(=O)c(C(=O)O)cn3C2CC2)CC1` [ERFX, enrofloxacin], the “MIC, WT” value in experiment [1] is recorded as 128. In experiment [2] (unit assumed), this compound showed an MIC, SAm1-201 of 64 µg/mL (≈ 178 µM). The MIC, SAm1-210 in experiment [3] is 32 µg/mL (≈ 89 µM). Besides, in experiment [4], the MIC, SAm1-206 worked out at 64 µg/mL (≈ 178 µM).

With `C[C@@H](O)[C@H]1C(=O)N2C(C(=O)O)=C([C@H]3CCCO3)S[C@H]12` [FRPM, faropenem], in experiment [1], the “MIC, WT” value is greater than 128. For the same compound, the “MIC, SAm1-201” value in experiment [2] is on record as 0.125>. Also, in experiment [5], the “drug sensitivity rating (disk method), SAm1-201” value was “S” and the “diameter of inhibitory zone, SAm1-201” value is recorded as no less than 50 millimeters. Further, the “drug sensitivity rating (disk method), WT” value in experiment [6] is recorded as “R”. The compound further came in with an MIC, SAm1-210 in experiment [3] of 0.125 µg/mL (≈ 0.438 µM). The same compound registered an MIC, SAm1-206 in experiment [4] of 0.25 µg/mL (≈ 0.876 µM).

Turning to `Cc1onc(-c2ccccc2)c1C(=O)N[C@@H]1C(=O)N2[C@@H]1SC(C)(C)[C@@H]2C(=O)O` [MPIPC, oxacillin], the “bacterial growth inhibition (turbidity) over 90 hours” value in experiment [7] is “failed in inhibiting bacterial growth”. The compound also had an MIC, SAm1-201 in experiment [2] (unit assumed) of 0.125 µg/mL (≈ 0.311 µM). In experiment [5], the “drug sensitivity rating (disk method), SAm1-201” value is on record as “S” and the “diameter of inhibitory zone, SAm1-201” value came to 35 millimeters. Also, in experiment [6], the “drug sensitivity rating (disk method), WT” value is “R”. The MIC, SAm1-210 in experiment [3] was determined as 0.125 µg/mL (≈ 0.311 µM). Further, in experiment [4], the MIC, SAm1-206 turned out to be 4 µg/mL (≈ 9.96 µM).

Take `C[C@@H](O)[C@H]1C(=O)N2C(C(=O)O)=C(S[C@@H]3CN[C@H](C(=O)N(C)C)C3)[C@H](C)[C@H]12` [MEPE, meropenem]: in experiment [1], the “MIC, WT” value is reported as 32. In addition, the “MIC, SAm1-201” value in experiment [2] is reported as 0.125>. In experiment [5], the “drug sensitivity rating (disk method), SAm1-201” value is listed as “S” and the “diameter of inhibitory zone, SAm1-201” value was determined as 28 millimeters. In experiment [6], the “drug sensitivity rating (disk method), WT” value is listed as “R” and the “diameter of inhibitory zone, WT” value worked out at 7 millimeters. This compound returned an MIC, SAm1-210 in experiment [3] of 0.125 µg/mL (≈ 0.326 µM). In addition, the MIC, SAm1-206 in experiment [4] came out at 4 µg/mL (≈ 10.4 µM).

For `CC1(C)S[C@@H]2[C@H](NC(=O)[C@H](N)c3ccc(O)cc3)C(=O)N2[C@H]1C(=O)O` [AMPC, amoxicillin], in experiment [1], the “MIC, WT” value was found to be 64. The MIC, SAm1-201 in experiment [2] (unit assumed) turned out to be 8 µg/mL (≈ 21.9 µM). In experiment [5], the “drug sensitivity rating (disk method), SAm1-201” value is reported as “S” and the “diameter of inhibitory zone, SAm1-201” value is 34 millimeters. In addition, the “drug sensitivity rating (disk method), WT” value in experiment [6] is “R”. In experiment [3], this compound returned an MIC, SAm1-210 of 2 µg/mL (≈ 5.47 µM). This compound registered an MIC, SAm1-206 in experiment [4] of 16 µg/mL (≈ 43.8 µM).

Consider `CO/N=C(\C(=O)N[C@@H]1C(=O)N2C(C(=O)O)=C(/C=C\c3scnc3C)CS[C@H]12)c1csc(N)n1` [CDTR, cefditoren], for which the “MIC, WT” value in experiment [1] is given as greater than 2. Moreover, the MIC, SAm1-201 in experiment [2] (unit assumed) is less than 0.5 µg/mL. Further, in experiment [3], the MIC, SAm1-210 is less than 0.5 µg/mL. The compound further yielded an MIC, SAm1-206 in experiment [4] of less than 0.5 µg/mL.

On to `CC1=C(C(=O)O)N2C(=O)[C@@H](NC(=O)[C@H](N)c3ccccc3)[C@H]2SC1` [CEX, cephalexin], for which, in experiment [5], the “drug sensitivity rating (disk method), SAm1-201” value is reported as “S” and the “diameter of inhibitory zone, SAm1-201” value was 29 millimeters. Further, the “drug sensitivity rating (disk method), WT” value in experiment [6] is “R”.

As for `CN(C)[C@@H]1C(O)=C(C(N)=O)C(=O)[C@@]2(O)C(O)=C3C(=O)c4c(O)cccc4[C@@](C)(O)[C@H]3[C@H](O)[C@@H]12` [OTC, oxytetracycline], the “MIC, WT” value in experiment [1] turned out to be 128. In experiment [2] (unit assumed), this compound came in with an MIC, SAm1-201 of 64 µg/mL (≈ 139 µM). In addition, the MIC, SAm1-210 in experiment [3] came out at 128 µg/mL (≈ 278 µM). Besides, the MIC, SAm1-206 in experiment [4] was determined as 128 µg/mL (≈ 278 µM).

Regarding `C[C@@H](O)[C@H]1C(=O)N2C(C(=O)O)=C(SCCN=CN)C[C@H]12` [IPM, imipenem], the “MIC, WT” value in experiment [1] is 64. Moreover, the “MIC, SAm1-201” value in experiment [2] is listed as 0.125>. In addition, in experiment [5], the “drug sensitivity rating (disk method), SAm1-201” value is on record as “S” and the “diameter of inhibitory zone, SAm1-201” value is given as 44 millimeters. Further, in experiment [6], the “drug sensitivity rating (disk method), WT” value was “R” and the “diameter of inhibitory zone, WT” value is recorded as 9 millimeters. Further, the MIC, SAm1-210 in experiment [3] is 0.125 µg/mL (≈ 0.418 µM). In experiment [4], this compound gave an MIC, SAm1-206 of 1 µg/mL (≈ 3.34 µM).

As for `CC/C=C(\C(=O)N[C@@H]1C(=O)N2C(C(=O)O)=C(COC(N)=O)CS[C@H]12)c1csc(N)n1` [CFPN, cefcapene], the “MIC, WT” value in experiment [1] is listed as greater than 2. Besides, the MIC, SAm1-201 in experiment [2] (unit assumed) is less than 0.5 µg/mL. The same compound returned an MIC, SAm1-210 in experiment [3] of less than 0.5 µg/mL. This compound also yielded an MIC, SAm1-206 in experiment [4] of less than 0.5 µg/mL.

For the compound penicillin [PCG], the “MIC, WT” value in experiment [1] is reported as greater than 16. Besides, in experiment [2] (unit assumed), the MIC, SAm1-201 is 2 µg/mL. Also, the MIC, SAm1-210 in experiment [3] is 4 µg/mL. The compound further returned an MIC, SAm1-206 in experiment [4] of 2 µg/mL.

Turning to `Cc1nnc(SCC2=C(C(=O)O)N3C(=O)[C@@H](NC(=O)Cn4cnnn4)[C@H]3SC2)s1` [CEZ, cefazolin], the “MIC, WT” value in experiment [1] is on record as greater than 128. The “drug sensitivity rating (MIC method), WT” value in experiment [1] (symbol in brackets) is reported as “(R)”. The “drug sensitivity rating (MIC method), SAm1-201” value in experiment [2] (symbol in brackets) is reported as “(S)”. In experiment [3], the MIC, SAm1-210 turned out to be 0.25 µg/mL (≈ 0.55 µM). Also, in experiment [4], the MIC, SAm1-206 was determined as 1 µg/mL (≈ 2.2 µM).

For the compound `COCC1=C(C(=O)O)N2C(=O)[C@@H](NC(=O)/C(=N\OC)c3csc(N)n3)[C@H]2SC1` [CPDX, cefpodoxime], in experiment [5], the “drug sensitivity rating (disk method), SAm1-201” value is reported as “S” and the “diameter of inhibitory zone, SAm1-201” value is 28 millimeters. Also, the “drug sensitivity rating (disk method), WT” value in experiment [6] was “R”.

With `C[C@H]1c2cccc(O)c2C(=O)C2=C(O)[C@]3(O)C(=O)C(C(N)=O)=C(O)[C@@H](N(C)C)[C@@H]3[C@@H](O)[C@@H]21` [DOXY, doxycycline], in experiment [1], the “MIC, WT” value was 8. Also, the MIC, SAm1-201 in experiment [2] (unit assumed) stood at 4 µg/mL (≈ 9 µM). In addition, the MIC, SAm1-210 in experiment [3] amounted to 4 µg/mL (≈ 9 µM). The compound further came in with an MIC, SAm1-206 in experiment [4] of 8 µg/mL (≈ 18 µM).
